Data as given in the NIST ThermoML archive (doi:10.1021/acs.jced.8b00132).
Several values for one entry are separate records, joined by “and”; a condition that tells them apart may be missing. Identical values can stand only once.

Settings: Gas

O=C(C(F)(F)C(F)(F)F)C(F)(C(F)(F)F)C(F)(F)F [dodecafluoro-2-methylpentan-3-one]
Settings | thermal conductivity
453.04 K, 2349 kPa, transient hot wire | 0.03749 W/m/K
453.05 K, 2432 kPa, transient hot wire | 0.03632 W/m/K
453.06 K, 2213 kPa, transient hot wire | 0.03787 W/m/K
453.06 K, 2283 kPa, transient hot wire | 0.039 W/m/K
453.07 K, 2432 kPa, transient hot wire | 0.03565 W/m/K
453.08 K, 2213 kPa, transient hot wire | 0.03857 W/m/K and 0.03787 W/m/K
453.09 K, 2350 kPa, transient hot wire | 0.03794 W/m/K and 0.03775 W/m/K
453.11 K, 2432 kPa, transient hot wire | 0.03612 W/m/K and 0.03616 W/m/K
453.11 K, 2570 kPa, transient hot wire | 0.03577 W/m/K and 0.03583 W/m/K
453.11 K, 2808 kPa, transient hot wire | 0.03624 W/m/K and 0.03614 W/m/K
453.14 K, 2350 kPa, transient hot wire | 0.03841 W/m/K and 0.03851 W/m/K
453.15 K, 2570 kPa, transient hot wire | 0.0359 W/m/K
453.16 K, 2433 kPa, transient hot wire | 0.03632 W/m/K
453.17 K, 2136 kPa, transient hot wire | 0.03394 W/m/K and 0.03367 W/m/K
453.17 K, 2432 kPa, transient hot wire | 0.03641 W/m/K
453.17 K, 2808 kPa, transient hot wire | 0.03589 W/m/K
453.19 K, 5686 kPa, transient hot wire | 0.04064 W/m/K
453.21 K, 2136 kPa, transient hot wire | 0.03328 W/m/K
453.21 K, 2570 kPa, transient hot wire | 0.03619 W/m/K
453.21 K, 3282 kPa, transient hot wire | 0.03735 W/m/K
453.21 K, 3283 kPa, transient hot wire | 0.03693 W/m/K
453.22 K, 2136 kPa, transient hot wire | 0.03435 W/m/K
453.22 K, 2432 kPa, transient hot wire | 0.03662 W/m/K
453.22 K, 2570 kPa, transient hot wire | 0.03586 W/m/K
453.22 K, 2810 kPa, transient hot wire | 0.03611 W/m/K
453.23 K, 2433 kPa, transient hot wire | 0.03706 W/m/K
453.23 K, 2810 kPa, transient hot wire | 0.03619 W/m/K
453.23 K, 8482 kPa, transient hot wire | 0.04362 W/m/K
453.24 K, 8482 kPa, transient hot wire | 0.04354 W/m/K
453.26 K, 5649 kPa, transient hot wire | 0.04056 W/m/K
453.27 K, 3283 kPa, transient hot wire | 0.03745 W/m/K
453.27 K, 5649 kPa, transient hot wire | 0.04057 W/m/K
453.28 K, 2570 kPa, transient hot wire | 0.03618 W/m/K
453.29 K, 2570 kPa, transient hot wire | 0.03626 W/m/K
453.29 K, 2810 kPa, transient hot wire | 0.03632 W/m/K
453.29 K, 4172 kPa, transient hot wire | 0.03871 W/m/K
453.29 K, 4174 kPa, transient hot wire | 0.03872 W/m/K
453.3 K, 2810 kPa, transient hot wire | 0.03661 W/m/K
453.33 K, 2570 kPa, transient hot wire | 0.03666 W/m/K
453.33 K, 3284 kPa, transient hot wire | 0.03713 W/m/K
453.34 K, 1996 kPa, transient hot wire | 0.03032 W/m/K
453.34 K, 3284 kPa, transient hot wire | 0.03709 W/m/K
453.34 K, 5678 kPa, transient hot wire | 0.04058 W/m/K
453.34 K, 5680 kPa, transient hot wire | 0.0407 W/m/K
453.36 K, 1997 kPa, transient hot wire | 0.02939 W/m/K
453.36 K, 2570 kPa, transient hot wire | 0.03639 W/m/K
453.36 K, 2811 kPa, transient hot wire | 0.03631 W/m/K
453.37 K, 8482 kPa, transient hot wire | 0.04354 W/m/K
453.38 K, 8480 kPa, transient hot wire | 0.0435 W/m/K
453.39 K, 4177 kPa, transient hot wire | 0.03877 W/m/K
453.4 K, 3286 kPa, transient hot wire | 0.03741 W/m/K
453.4 K, 5646 kPa, transient hot wire | 0.04064 W/m/K
453.4 K, 13124 kPa, transient hot wire | 0.04703 W/m/K and 0.04697 W/m/K
453.41 K, 3285 kPa, transient hot wire | 0.03741 W/m/K
453.41 K, 5645 kPa, transient hot wire | 0.04067 W/m/K
453.42 K, 1998 kPa, transient hot wire | 0.02991 W/m/K and 0.02978 W/m/K
453.46 K, 20262 kPa, transient hot wire | 0.05129 W/m/K
453.48 K, 3286 kPa, transient hot wire | 0.03719 W/m/K
453.48 K, 5676 kPa, transient hot wire | 0.04078 W/m/K
453.48 K, 20262 kPa, transient hot wire | 0.05134 W/m/K
453.49 K, 4182 kPa, transient hot wire | 0.03866 W/m/K
453.49 K, 5674 kPa, transient hot wire | 0.04064 W/m/K
453.49 K, 8479 kPa, transient hot wire | 0.04353 W/m/K
453.5 K, 4184 kPa, transient hot wire | 0.03869 W/m/K
453.5 K, 31253 kPa, transient hot wire | 0.05652 W/m/K
453.51 K, 8480 kPa, transient hot wire | 0.04354 W/m/K
453.51 K, 31255 kPa, transient hot wire | 0.05656 W/m/K
453.52 K, 1999 kPa, transient hot wire | 0.03046 W/m/K
453.52 K, 13123 kPa, transient hot wire | 0.04703 W/m/K
453.53 K, 13124 kPa, transient hot wire | 0.04696 W/m/K
453.54 K, 5643 kPa, transient hot wire | 0.04051 W/m/K
453.55 K, 47061 kPa, transient hot wire | 0.06271 W/m/K
453.56 K, 1718 kPa, transient hot wire | 0.02564 W/m/K
453.58 K, 1718 kPa, transient hot wire | 0.02573 W/m/K
453.6 K, 4188 kPa, transient hot wire | 0.03889 W/m/K
453.6 K, 46969 kPa, transient hot wire | 0.06282 W/m/K
453.6 K, 46979 kPa, transient hot wire | 0.06275 W/m/K
453.62 K, 4187 kPa, transient hot wire | 0.03872 W/m/K
453.62 K, 20261 kPa, transient hot wire | 0.05127 W/m/K
453.62 K, 20264 kPa, transient hot wire | 0.05121 W/m/K
453.63 K, 5670 kPa, transient hot wire | 0.04057 W/m/K
453.63 K, 5671 kPa, transient hot wire | 0.04054 W/m/K
453.63 K, 31252 kPa, transient hot wire | 0.05654 W/m/K
453.64 K, 526 kPa, hot wire | 0.02431 W/m/K
453.64 K, 8480 kPa, transient hot wire | 0.04343 W/m/K
453.64 K, 31251 kPa, transient hot wire | 0.05647 W/m/K
453.65 K, 526 kPa, hot wire | 0.02432 W/m/K
453.66 K, 8479 kPa, transient hot wire | 0.04348 W/m/K
453.66 K, 47049 kPa, transient hot wire | 0.06259 W/m/K
453.67 K, 1718 kPa, transient hot wire | 0.02603 W/m/K
453.67 K, 47042 kPa, transient hot wire | 0.06272 W/m/K
453.68 K, 1718 kPa, transient hot wire | 0.02589 W/m/K
453.68 K, 13120 kPa, transient hot wire | 0.04693 W/m/K
453.68 K, 13121 kPa, transient hot wire | 0.04701 W/m/K
453.69 K, 5641 kPa, transient hot wire | 0.04062 W/m/K
453.7 K, 353 kPa, hot wire | 0.02345 W/m/K
453.7 K, 5640 kPa, transient hot wire | 0.04066 W/m/K
453.72 K, 350 kPa, hot wire | 0.02302 W/m/K
453.73 K, 171 kPa, hot wire | 0.02261 W/m/K
453.73 K, 174 kPa, hot wire | 0.0228 W/m/K
453.73 K, 4189 kPa, transient hot wire | 0.03831 W/m/K
453.73 K, 4192 kPa, transient hot wire | 0.03871 W/m/K
453.73 K, 46962 kPa, transient hot wire | 0.06254 W/m/K
453.73 K, 46969 kPa, transient hot wire | 0.06263 W/m/K
453.74 K, 525 kPa, hot wire | 0.0244 W/m/K
453.75 K, 524 kPa, hot wire | 0.02432 W/m/K
453.75 K, 1718 kPa, transient hot wire | 0.02601 W/m/K
453.76 K, 1718 kPa, transient hot wire | 0.02605 W/m/K
453.77 K, 20261 kPa, transient hot wire | 0.05121 W/m/K
453.77 K, 20262 kPa, transient hot wire | 0.0513 W/m/K
453.78 K, 48 kPa, hot wire | 0.02241 W/m/K
453.78 K, 31246 kPa, transient hot wire | 0.0566 W/m/K
453.79 K, 31248 kPa, transient hot wire | 0.05653 W/m/K
453.8 K, 48 kPa, hot wire | 0.02228 W/m/K
453.8 K, 344 kPa, hot wire | 0.0233 W/m/K
453.8 K, 347 kPa, hot wire | 0.02342 W/m/K
453.8 K, 5666 kPa, transient hot wire | 0.0408 W/m/K
453.8 K, 8477 kPa, transient hot wire | 0.04345 W/m/K
453.81 K, 1718 kPa, transient hot wire | 0.02631 W/m/K
453.81 K, 47035 kPa, transient hot wire | 0.06264 W/m/K
453.82 K, 8478 kPa, transient hot wire | 0.0434 W/m/K
453.84 K, 171 kPa, hot wire | 0.02268 W/m/K
453.84 K, 524 kPa, hot wire | 0.02443 W/m/K
453.84 K, 13123 kPa, transient hot wire | 0.04696 W/m/K
453.85 K, 170 kPa, hot wire | 0.02247 W/m/K
453.85 K, 13121 kPa, transient hot wire | 0.04695 W/m/K
453.86 K, 523 kPa, hot wire | 0.02411 W/m/K
453.87 K, 5638 kPa, transient hot wire | 0.0407 W/m/K
453.87 K, 46957 kPa, transient hot wire | 0.06253 W/m/K
453.88 K, 47 kPa, hot wire | 0.02246 W/m/K and 0.02258 W/m/K
453.88 K, 1718 kPa, transient hot wire | 0.02616 W/m/K and 0.02618 W/m/K
453.88 K, 46954 kPa, transient hot wire | 0.06253 W/m/K
453.9 K, 340 kPa, hot wire | 0.02338 W/m/K
453.9 K, 342 kPa, hot wire | 0.02344 W/m/K
453.91 K, 1365 kPa, transient hot wire | 0.02445 W/m/K
453.92 K, 1364 kPa, transient hot wire | 0.02439 W/m/K
453.93 K, 20259 kPa, transient hot wire | 0.05122 W/m/K
453.94 K, 524 kPa, hot wire | 0.02452 W/m/K
453.94 K, 1718 kPa, transient hot wire | 0.02654 W/m/K
453.94 K, 1719 kPa, transient hot wire | 0.02663 W/m/K
453.94 K, 20259 kPa, transient hot wire | 0.05128 W/m/K
453.94 K, 31248 kPa, transient hot wire | 0.05655 W/m/K
453.95 K, 170 kPa, hot wire | 0.0227 W/m/K and 0.02256 W/m/K
453.95 K, 524 kPa, hot wire | 0.02446 W/m/K
453.95 K, 31244 kPa, transient hot wire | 0.05645 W/m/K
453.95 K, 47020 kPa, transient hot wire | 0.06258 W/m/K
453.96 K, 47012 kPa, transient hot wire | 0.06261 W/m/K
453.98 K, 48 kPa, hot wire | 0.02243 W/m/K and 0.02253 W/m/K
454.01 K, 338 kPa, hot wire | 0.02346 W/m/K
454.02 K, 339 kPa, hot wire | 0.02333 W/m/K
454.02 K, 13121 kPa, transient hot wire | 0.047 W/m/K and 0.04696 W/m/K
454.02 K, 46938 kPa, transient hot wire | 0.06262 W/m/K
454.02 K, 46945 kPa, transient hot wire | 0.06264 W/m/K
454.06 K, 523 kPa, hot wire | 0.02445 W/m/K
454.07 K, 170 kPa, hot wire | 0.02273 W/m/K
454.07 K, 522 kPa, hot wire | 0.02433 W/m/K
454.07 K, 1364 kPa, transient hot wire | 0.02449 W/m/K
454.07 K, 1365 kPa, transient hot wire | 0.02446 W/m/K
454.07 K, 1718 kPa, transient hot wire | 0.02688 W/m/K and 0.02682 W/m/K
454.08 K, 169 kPa, hot wire | 0.02266 W/m/K
454.09 K, 48 kPa, hot wire | 0.02257 W/m/K
454.1 K, 48 kPa, hot wire | 0.0225 W/m/K
454.1 K, 20256 kPa, transient hot wire | 0.0513 W/m/K and 0.05118 W/m/K
454.1 K, 31241 kPa, transient hot wire | 0.05644 W/m/K
454.1 K, 31244 kPa, transient hot wire | 0.05644 W/m/K
454.11 K, 47006 kPa, transient hot wire | 0.06269 W/m/K
454.13 K, 337 kPa, hot wire | 0.02342 W/m/K
454.13 K, 338 kPa, hot wire | 0.0234 W/m/K
